The source of these data is patent US11535630B2, “Apelin receptor (APJ) agonists and uses thereof” (Research Triangle Institute, priority 2015, dated 2022).

Each structure is given as a SMILES string.

The target of one test is T1, apelin receptor (APJ) (Homo sapiens, UniProt P35414).
T1 sequence (P35414 1-380): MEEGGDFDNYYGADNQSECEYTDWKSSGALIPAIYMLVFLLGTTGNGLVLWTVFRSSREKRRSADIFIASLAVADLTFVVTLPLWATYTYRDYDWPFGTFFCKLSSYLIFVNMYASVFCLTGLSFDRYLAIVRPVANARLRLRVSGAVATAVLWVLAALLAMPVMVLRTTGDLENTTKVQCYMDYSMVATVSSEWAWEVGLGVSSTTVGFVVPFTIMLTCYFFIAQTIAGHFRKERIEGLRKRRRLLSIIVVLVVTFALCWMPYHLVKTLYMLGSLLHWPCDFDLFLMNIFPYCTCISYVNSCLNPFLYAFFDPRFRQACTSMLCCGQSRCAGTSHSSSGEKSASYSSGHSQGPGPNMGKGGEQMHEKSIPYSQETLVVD
Put plainly: In vitro apelin agonist activity (methods of Giddings et al., Apelin-13 as positive control). The test is classed as cell-based. To be noted: EC50 (nM) Ave, in vitro apelin agonist activity, methods of Giddings et al., Apelin-13 as positive control. An excerpt: Characterization of the Apelin Agonist Activity of the Compounds
1:39-47, the contents of which are hereby incorporated by reference in its entirety. Using the methods described in Giddings et al. and Apelin-13 as a positive control.
In turn, `O=C(O)C[C@H](CCN1CC(F)(F)C(F)(F)C(F)(F)C1)NC(=O)c1cc(-c2ccccc2C(F)(F)F)n(C2CCCC2)n1` [compound 566, (3S)-3-({1-cyclopentyl-5-[2-(trifluoromethyl)phenyl]-1H-pyrazol-3-yl}formamido)-5-(3,3,4,4,5,5-hexafluoropiperidin-1-yl)pentanoic acid] registered an EC50 of 3050 nM.

Still in this test, the particulars now being: in vitro apelin agonist activity, methods of Giddings et al., Apelin-13 as positive control; read-out: EC50 (nM) Ave.
As for `CC(C[C@@H](CC(=O)O)NC(=O)c1cc(-c2ccccc2C(F)(F)F)n(C2CCCC2)n1)N1CCC(F)(F)C1` (stereo partly drawn) [compound 567, (3S)-3-({1-cyclopentyl-5-[2-(trifluoromethyl)phenyl]-1H-pyrazol-3-yl}formamido)-5-(3,3-difluoropyrrolidin-1-yl)hexanoic acid], the concentration giving a half-maximal response (EC50) stood at 648 nM.
Same read-out and setting: next, `CC(C)(C)Cn1nc(C(=O)N[C@@H](CCN2CCCC(F)(F)C2)CC(=O)O)cc1-c1ccccc1C(F)(F)F` [compound 568, (3S)-5-(3,3-difluoropiperidin-1-yl)-3-{[1-(2,2-dimethylpropyl)-5-[2-(trifluoromethyl)phenyl]-1H-pyrazol-3-yl]formamido}pentanoic acid]: above 10000 nM.
The same measure, in the same setting: for `COCCN(C)C(=O)[C@H](COc1ccccc1)NC(=O)c1cc(-c2ccccc2C(F)(F)F)n(C2CCCC2)n1` [compound 570, (2S)-2-({1-cyclopentyl-5-[2-(trifluoromethyl)phenyl]-1H-pyrazol-3-yl}formamido)-N-(2-methoxyethyl)-N-methyl-3-phenoxypropanamide] the value was 4250 nM; for `O=C(O)C[C@H](CCN1CCCC(F)(F)C1)NC(=O)c1cc(-c2ccccc2C(F)(F)F)n(CC2CCC2)n1` [compound 571, (3S)-3-{[1-(cyclobutylmethyl)-5-[2-(trifluoromethyl)phenyl]-1H-pyrazol-3-yl}formamido}-5-(3,3-difluoropiperidin-1-yl)pentanoic acid], 130 nM; for `C[C@@H](C[C@@H](CC(=O)O)NC(=O)c1cc(-c2ccccc2C(F)(F)F)n(C2CCCC2)n1)N1CCC(F)(F)C1` [compound 572, (3S,5S)-3-({1-cyclopentyl-5-[2-(trifluoromethyl)phenyl]-1H-pyrazol-3-yl}formamido)-5-(3,3-difluoropyrrolidin-1-yl)hexanoic acid], 124 nM.
With `CC(C[C@@H](CC(=O)NC1CCC1)NC(=O)c1cc(-c2ccccc2C(F)(F)F)n(C2CCCC2)n1)N1CCC(F)(F)C1` (stereo partly drawn) [compound 573, (3S)-N-cyclobutyl-3-({1-cyclopentyl-5-[2-(trifluoromethyl)phenyl]-1H-pyrazol-3-yl}formamido)-5-(3,3-difluoropyrrolidin-1-yl)hexanamide], the EC50 is 299 nM.
Consider `O=C(O)C[C@H](CCN1CC(F)(F)C(F)(F)C1)NC(=O)c1cc(-c2ccccc2C(F)(F)F)n(C2CCCC2)n1` [compound 574, (3S)-3-({1-cyclopentyl-5-[2-(trifluoromethyl)phenyl]-1H-pyrazol-3-yl}formamido)-5-(3,3,4,4-tetrafluoropyrrolidin-1-yl)pentanoic acid], for which the EC50 is 981 nM.
In the case of `C[C@H](C[C@@H](CC(=O)O)NC(=O)c1cc(-c2ccccc2C(F)(F)F)n(C2CCCC2)n1)N1CCCC(F)(F)C1` [compound 575, (3S,5R)-3-({1-cyclopentyl-5-[2-(trifluoromethyl)phenyl]-1H-pyrazol-3-yl}formamido)-5-(3,3-difluoropiperidin-1-yl)hexanoic acid], the EC50 was 91 nM.
As to `C[C@@H](C[C@@H](CC(=O)O)NC(=O)c1cc(-c2ccccc2C(F)(F)F)n(C2CCCC2)n1)N1CCCC(F)(F)C1` [compound 576, (3S,5S)-3-({1-cyclopentyl-5-[2-(trifluoromethyl)phenyl]-1H-pyrazol-3-yl}formamido)-5-(3,3-difluoropiperidin-1-yl)hexanoic acid], the EC50 came out at 1370 nM.
Same read-out and setting: next, `O=C(N[C@@H](CC1CCCCC1)C(=O)O)c1cc(-c2ccccc2C(F)(F)F)n(C2CCCC2)n1` [compound 577, (2S)-3-cyclohexyl-2-({1-cyclopentyl-5-[2-(trifluoromethyl)phenyl]-1H-pyrazol-3-yl}formamido)propanoic acid]: 1030 nM.
Same read-out and setting: for `O=C(O)C[C@H](CCN1CCC(C(F)(F)F)C1)NC(=O)c1cc(-c2ccccc2C(F)(F)F)n(C2CCCC2)n1` (stereo partly drawn) [compound 578, (3S)-3-({1-cyclopentyl-5-[2-(trifluoromethyl)phenyl]-1H-pyrazol-3-yl}formamido)-5-[3-(trifluoromethyl)pyrrolidin-1-yl]pentanoic acid] the value was 78 nM.
In the case of `O=C(O)C[C@@H](CCN1CCCC(F)(F)C1)NC(=O)c1cc(-c2ccccc2C(F)(F)F)n(C2CCCC2)n1` [compound 579, (3R)-3-({1-cyclopentyl-5-[2-(trifluoromethyl)phenyl]-1H-pyrazol-3-yl}formamido)-5-(3,3-difluoropiperidin-1-yl)pentanoic acid], the EC50 worked out at 1870 nM.
On the same count and under the same terms, for `CCCn1nc(C(=O)N[C@@H](CCN2CCCC(F)(F)C2)CC(=O)O)cc1-c1ccccc1C(F)(F)F` [compound 580, (3S)-5-(3,3-difluoropiperidin-1-yl)-3-({1-propyl-5-[2-(trifluoromethyl)phenyl]-1H-pyrazol-3-yl}formamido)pentanoic acid] the value was 718 nM; for `O=C(O)C[C@H](CCN1C[C@@H](F)[C@@H](F)C1)NC(=O)c1cc(-c2ccccc2C(F)(F)F)n(C2CCCC2)n1` [compound 581, (3S)-3-({1-cyclopentyl-5-[2-(trifluoromethyl)phenyl]-1H-pyrazol-3-yl}formamido)-5-[(3R,4S)-3,4-difluoropyrrolidin-1-yl]pentanoic acid], 215 nM; for `O=C(O)C[C@H](CCN1C[C@H](F)[C@@H](F)C1)NC(=O)c1cc(-c2ccccc2C(F)(F)F)n(C2CCCC2)n1` [compound 582, (3S)-3-({1-cyclopentyl-5-[2-(trifluoromethyl)phenyl]-1H-pyrazol-3-yl}formamido)-5-[(3S,4S)-3,4-difluoropyrrolidin-1-yl]pentanoic acid], 109 nM.
On to `O=C(O)C[C@H](CCN1CCC[C@H](F)C1)NC(=O)c1cc(-c2ccccc2C(F)(F)F)n(C2CCCC2)n1` [compound 583, (3S)-3-({1-cyclopentyl-5-[2-(trifluoromethyl)phenyl]-1H-pyrazol-3-yl}formamido)-5-[(3S)-3-fluoropiperidin-1-yl]pentanoic acid], for which the concentration for a half-maximal effect (EC50) came to 302 nM.
Still for that read-out and setting: next, `O=C(O)C[C@H](CCN1CCC[C@@H](F)C1)NC(=O)c1cc(-c2ccccc2C(F)(F)F)n(C2CCCC2)n1` [compound 584, (3S)-3-({1-cyclopentyl-5-[2-(trifluoromethyl)phenyl]-1H-pyrazol-3-yl}formamido)-5-[(3R)-3-fluoropiperidin-1-yl]pentanoic acid]: 184 nM.
Same read-out and setting: for `O=C(O)C[C@H](CCN1CC[C@H](F)C1)NC(=O)c1cc(-c2ccccc2C(F)(F)F)n(C2CCCC2)n1` [compound 585, (3S)-3-({1-cyclopentyl-5-[2-(trifluoromethyl)phenyl]-1H-pyrazol-3-yl}formamido)-5-[(3S)-3-fluoropyrrolidin-1-yl]pentanoic acid] the value was 654 nM; for `O=C(O)C[C@H](CCN1CCCCC1=O)NC(=O)c1cc(-c2ccccc2C(F)(F)F)n(C2CCCC2)n1` [compound 587, (3S)-3-({1-cyclopentyl-5-[2-(trifluoromethyl)phenyl]-1H-pyrazol-3-yl}formamido)-5-(2-oxopiperidin-1-yl)pentanoic acid], 355 nM.
